Results: patent US7879792B2, “Synthetic peptide inhibitors of thrombin and thrombin activation of protease activated receptors 1 and 4” (The Regents of the University of Michigan, priority 2005, dated 2011)
Where a SMILES comes first, the peptide text is derived from it.

Tests used:
[1] = stability testing in intestinal homogenate; assay type: in vitro ADME; settings: rat
Method: Stability testing of the various compounds was performed in buffer, intestinal perfusate, and an intestinal homogenate preparation to assess the potential oral availability of these compounds. Initial studies prepared the tissue for stability studies. The buffer used in stability testing is 10 mM MES (pH 6.5) containing 135 mM NaCl, and 5 mM KCl. To collect intestinal perfusate from rats, male Sprague Dawley rats, 8 to 10 weeks old, weighing 250 to 350 g were fasted 15 to 18 hours with water given ad libitum. Anesthesia was administered by intramuscular injection of pentobarbital/ketamine (40 mg/kg and 80 mg/kg, respectively). The rats were placed on a warming pad under a surgical lamp to maintain body temperature and jejunal intestinal segments were exposed through a midline, abdominal incision. Approximately 20 cm segment of the jejunum (2 to 4 cm distal to the ligament of Treitz) was cannulated and the intestinal segments were perfused with 10 mM MES (pH 6.5) containing 135 mM NaCl, and 5 mM KCl at a flow-rate of 0.5 ml/min at 37° C. using a constant infusion pump (Harvard Apparatus, South Natick, Mass.). The collected perfusate was stored at −80° C. until use for ex vivo stability studies. After collection, the perfused intestinal segments were flushed with ice-cold 0.15 M KCl solution and the animal was euthanized and the jejunal intestinal segment detached. The inner intestinal tissue layers are scraped out and homogenized in MES buffer (pH 6.5) in a ratio of 1 part of intestinal tissue to 5 parts buffer. Total protein content of the perfusate and the homogenate were determined using a Biorad protein assay kit. The intestinal homogenate samples were used immediately or rapidly frozen at −80° C. until stability analysis.
The actual stability testing protocol is as follows: A 0.1 ml aliquot of the synthetic peptide solution (1 mg/ml) was added to 0.9 ml of MES buffer, pH 6.5, intestinal perfusate, or intestinal homogenate at 37° C. Samples were mixed by vortexing and 100 microliter aliquots were removed over a 60 to 90 minute period for analysis of breakdown products. The 100 microliter sample aliquots were diluted 10 fold with water and subjected to solid phase extraction using a Waters Oasis HLB column. Briefly, the columns were preconditioned by passing 1 ml of MeOH and 1 ml of water over the column, and 1 ml of sample was added to the column. The column was washed with 5% methanol:95% water solution to remove proteins and salts, then eluted with 1 ml of 100% methanol. The methanol was removed by vacuum, and the sample was reconstituted in mobile phase for LC/MS/MS analysis.
LC/MS/MS analysis was performed on a HP1100 HPLC (Hewlett Packard) interfaced with a Quattro II MS/MS detector (Waters/Micromass). For the HPLC separation, a 10 μL aliquot of sample in a mobile phase consisting of an equal volume mixture of acetonitrile/water containing 0.5% formic acid was injected onto a 150 mm×2.2 mm, 5 μm C8 column (Higgins Analytical Inc) and developed at a flow rate of 0.2 ml/min for 5 minutes. The MS detector was used in single ion recording mode at a cone voltage of 50 Volts.

[2] = system: normal human lung fibroblasts (NHLF); assay: α-thrombin-induced calcium mobilization in normal human lung fibroblasts; assay type: cell-based; settings: 2 nM alpha thrombin
Method: The second assay developed to assess peptides from the combinatorial libraries uses inhibition of α-thrombin-induced calcium mobilization in fibroblasts. Normal human lung fibroblasts (NHLF) were purchased from Clonetics, San Diego, Calif., an affiliate of Bio-Wittaker, Walkersville, Md. The cytoplasmic free Ca^2+ concentration ([Ca^2+]i) was measured using the fluorescent Ca^2+ indicator fura-2 (Molecular Probes, Inc., Eugene, Oreg.). Suspension of fibroblasts in Hepes-Tyrode's buffer were loaded with fura-2 by incubation at 37° C. with 2 μM fura-2/acetoxymethyl ester for 45 minutes according to the method of Rasmussen et al., J. Biol. Chem. 268, 14322 (1993). The labeled fibroblasts were separated from excess probe by washing by centrifugation at 1000 rpm (180 xg). Aliquots of the labeled fibroblasts were transferred into a quartz cuvette with a magnetic stirrer, which was then placed in a thermostatically controlled chamber at 37° C. in a fluorescence spectrophotometer (Perkin-Elmer LS50B spectrofluorometer, Chicago, Ill.). Reagents, test peptide, and α-thrombin (0.25-2 nM), were sequentially added directly to the cuvette. The excitation wavelengths varied between 340 and 380 nm. Fluorescence was measured by recording emitted light at 510 nm as reported by Fisher et al., Mol Pharm. 35, 195 (1989). The minimum emission was determined on a solubilized fibroblast sample in the presence of 10 mM EDTA; maximum emission was determined on the same sample with 10 mM Ca^2+ added. The intrafibroblast free Ca^2+ concentration was calculated by the method of Grykiewicz et al., J. Biol. Chem. 260, 3440 (1985). The ratio of the fluorescence readings was calculated as R=340/380 nm and processed according to the equation [Ca^2+]i=KD((R−Rmin)/Rmax−R))(Sf2/Sb2) to determine the intrafibroblast free Ca^2+ concentration. The KD for fura-2 was assumed to be 224 nM. Rmax and Rmin are the maximum and minimum fluorescence ratios measured at the end of the experiment, respectively; Sf2 and Sb2 are the fluorescence values at 380 nm in the absence and presence of saturating [Ca^2+], respectively. The reaction was monitored for 3-5 minutes.

[3] = system: normal human citrated plasma; assay: thrombin clotting time (TCT); assay type: biochemical; settings: 1 nM thrombin
Method: The influence of the various peptide formulations used in the present invention on established coagulation-based assays was determined. The activated partial thromboplastin time (APTT) is performed by mixing 0.05 ml normal human citrated plasma with 0.05 ml activated partial thromboplastin reagent purchased from Organon Teknika, Research Triangle Park, NC in the absence or presence of a peptide inhibitor. After incubation for 5 min at 37° C., the mixture is recalcified with 0.05 ml of 30 mM calcium chloride and the time to clot formation is measured in an Amelung KC4A instrument (Sigma Chemical Corp, St. Louis, Mo.) (Hasan et al. Thrombosis and Haemostasis. 82, 1182-1187 (1999)). The prothrombin time (PT) is performed by mixing 0.05 ml normal human citrated plasma with 0.05 ml Simplastin (Organon Teknika, Research Triangle Park, NC) followed by incubation for 3 min at 37° C. in the absence or presence of a peptide inhibitor. At the addition of 0.05 ml of 30 mM calcium chloride, the time to clot formation is measured in an KC4A instrument (Sigma Chemical Corp, St. Louis, Mo.) (Hasan et al. Thrombosis and Haemostasis. 82, 1182-1187 (1999)). The thrombin clotting time (TCT) is performed by adding 0.1 ml normal human citrated plasma in the absence or presence of a peptide inhibitor and 0.05 ml of a α-thrombin solution such that the final concentration of the thrombin in the entire mixture was 1 nM. Upon addition of the thrombin, the time to clot formation is measured in an KC4A instrument (Sigma Chemical Corp, St. Louis, Mo.).

half-life at 0.1 mg/ml ([1]; male, Sprague Dawley, intestinal homogenate, pH 6.5, 37° C., read-out: t1/2 (min) Intestinal Homogenate) | stability in intestinal homogenate (FIG. 12) [1] | Structure (SMILES) | alpha thrombin-induced calcium mobilization ([2]; 0.00038 mM peptide) | inhibition of thrombin-induced calcium mobilization ([2]; 0.003 mM peptide) | inhibition of thrombin-induced calcium mobilization ([2]; 0.08 mM peptide) | peptide concentration with significant prolongation (p<0.05) of the TCT [3]
40.3 min | less stable | N=C(N)NCCC[C@@H](N)C(=O)N1[C@H](C(=O)N2CCC[C@H]2C(=O)NCC(=O)N[C@@H](Cc2ccccc2)C(N)=O)C[C@@H]2CCCC[C@@H]21 [rOicPGF, D-Arg-Oic-Pro-Gly-Phe, reference compound] (HELM PEPTIDE1{[dR].[O=C([C@@H]1C[C@@H]2CCCC[C@@H]2N1[*:1])[*:2]].P.G.F.[am]}$$$$V2.0) | – | – | – | –
– | – | Cc1ccc(C[C@H](NC(=O)[C@@H](C)NC(=O)[C@@H]2CCCN2C(=O)[C@@H]2C[C@@H]3CCCC[C@@H]3N2C(=O)[C@H](N)CCCNC(=N)N)C(N)=O)cc1 [rOicPaF(p-Me), D-Arg-Oic-Pro-D-Ala-Phe(p-Me)] (HELM PEPTIDE1{[dR].[O=C([C@@H]1C[C@@H]2CCCC[C@@H]2N1[*:1])[*:2]].P.[dA].[Cc1ccc(C[C@H](N[*:1])C(=O)[*:2])cc1].[am]}$$$$V2.0) | full recovery | 69% | 97% | 0.78 µM
